{"source": "a melting point compilation (Tetko et al.; mined from patent text by program, amines drawn as free bases though some values may be those of a salt)", "data": [{"units": {"melting point": "°C"}, "values": [{"smiles": "N#Cc1cnn(CCCl)c1N", "melting point": 156}, {"smiles": "COC(N)=CC(=O)C(C)(C)C", "melting point": "79 to 79.5"}, {"smiles": "CC(=O)N1CC(CCN2CC=C(c3c[nH]c4cc(Cl)ccc34)CC2)c2cc(F)ccc21", "note": "(configuration not stated)", "melting point": "183 to 185"}, {"smiles": "CC=C1CC2C3CCc4cc(OC)ccc4C3CCC2(C)C1=O", "note": "(configuration not stated)", "melting point": "139 to 140"}, {"smiles": "C=C1C(C(=O)c2ccccc2)CC(O[Si](c2ccccc2)(c2ccccc2)C(C)(C)C)C1COC(c1ccccc1)(c1ccccc1)c1ccccc1", "note": "(configuration not stated)", "melting point": "142 to 144"}, {"smiles": "COc1ccc(C(CC(=O)O)CC(=O)O)cc1", "melting point": "147 to 150"}, {"smiles": "O=C(NCC12CC3CC(CC(C3)C1)C2)c1cc(F)ccc1Br", "melting point": "143 to 144"}, {"smiles": "CCOC(=O)c1[nH]c2ccc(C[C@H]3COC(=O)N3)cc2c1CCN(C)C", "melting point": "49 to 55"}, {"smiles": "NCc1ccc(C(=O)CCCN2CCC(c3ccc(Cl)cc3)CC2)cc1", "melting point": "94 to 96"}, {"smiles": "COc1ccc(CC2(C(F)F)NC(=O)NC2=O)cc1", "note": "(configuration not stated)", "melting point": 164}, {"smiles": "CCOC(=O)Nc1nc(-c2ccccc2)c(-c2nc3ccccc3c(=O)n2-c2ccc(C(C)=O)cc2)s1", "melting point": "245 to 247"}, {"smiles": "O=C(c1ccc(F)cc1)c1noc(CN2CCN(c3ccccc3)CC2)n1", "melting point": "72 to 74"}, {"smiles": "COc1ccc2c(c1)CCC1C2CCC2(C)C1CCC2N(C)CCC(C)C", "note": "(configuration not stated)", "melting point": "80 to 80.5"}, {"smiles": "Cc1cc(Br)cnc1NCCCNC1=NS(=O)N=C1N", "note": "(configuration not stated)", "melting point": "204 to 205"}, {"smiles": "COc1ccc(CC(=O)c2c(O)c3cccnc3n(-c3ccccc3)c2=O)cc1", "melting point": "190 to 192"}, {"smiles": "Cc1ccc(Cl)c(C)c1Nn1cc(C#N)c(=O)[nH]c1=O", "melting point": "> 320"}, {"smiles": "O=C(O)C(=O)Nc1ccc(Oc2ccc(NC(=O)C(=O)O)cc2)cc1", "melting point": "> 320"}, {"smiles": "O=C1c2ccccc2C(=O)c2c1oc1c2ccc2ccc(O)cc21", "melting point": 332}, {"smiles": "CS(=O)(=O)c1ccc(-c2cc(CO)nn2C2CCCCC2)cc1", "melting point": 148}, {"smiles": "C#Cc1ccc(Oc2ccc(C(=O)C(=O)c3cccc(C(=O)C(=O)c4ccc(Oc5ccc(C#C)cc5)cc4)c3)cc2)cc1", "melting point": "120 to 121"}, {"smiles": "Cc1nc2ccc(Cl)cc2nc1Cl", "melting point": "194 to 196"}, {"smiles": "CCN(CC)CCOc1ccc(C(O)(CC)c2cccc(Cl)c2)cc1", "note": "(configuration not stated)", "melting point": "64 to 65"}, {"smiles": "COc1ccc(COc2cccnc2NC(=S)Nc2ccc(Cl)cc2)cc1", "melting point": "136 to 138"}, {"smiles": "CC(C)CCc1c(-c2ccc(S(C)(=O)=O)cc2)cnn(-c2ccc(F)c(F)c2)c1=O", "melting point": "55 to 58"}, {"smiles": "CN(C)C1CCN(CCc2ccc(-c3cccc(N)n3)cc2)CC1", "melting point": "174 to 176"}, {"smiles": "CC(C)c1ccc(N(Cc2ccc(O)cc2)C(=O)C2CCCc3ccccc32)cc1", "note": "(configuration not stated)", "melting point": 156}, {"smiles": "Cn1cc(C(=O)c2ccccn2)cc1C(=O)c1ccc(Cl)cc1", "melting point": "138 to 139"}, {"smiles": "Cn1c(/C=C/C2CC(O)CC(=O)O2)c(-c2ccccc2)c2ccccc2c1=O", "note": "(configuration not stated)", "melting point": "190 to 193"}, {"smiles": "Cc1ccccc1-c1cnc2c(C(F)(F)F)cccc2c1-c1cccc(NC(=O)Nc2ccccc2Cl)c1", "melting point": "224 to 226"}, {"smiles": "CSc1ccc2c(c1)C(O)Cc1ccc(C)cc1O2", "note": "(configuration not stated)", "melting point": "67 to 69"}, {"smiles": "CS(=O)(=O)Nc1ccc(OCC2CCN(c3ccncc3)CC2)cc1", "melting point": "214 to 215"}, {"smiles": "CC(C)n1nc(-c2sc(NC(C)(C)C)nc2-c2ccccc2)ccc1=O", "melting point": "189 to 190"}, {"smiles": "C=Cc1ccnc2c([N+](=O)[O-])cccc12", "melting point": 134}, {"smiles": "CCCC1=C(C#N)C(c2cccc(Br)c2)c2c[nH]nc2N1", "note": "(configuration not stated)", "melting point": "202 to 205"}, {"smiles": "Cc1nnc(-c2ccccc2)n1-c1ccccc1", "melting point": 163}, {"smiles": "CC1CCN(c2cc(C(C)(C)C)ns2)C1=O", "note": "(configuration not stated)", "melting point": "111 to 113"}, {"smiles": "CC(=O)N(NC(N)=S)c1ccc([N+](=O)[O-])cc1", "melting point": 242}, {"smiles": "CCCc1c(OCCc2cc3cc(CC(=O)O)ccc3[nH]2)ccc2c(-c3ccccc3)coc12", "melting point": "129 to 130"}, {"smiles": "Cc1ccsc1C(=O)c1sc(Nc2ccc(-n3ccnc3)cc2)nc1N", "melting point": "> 300"}, {"smiles": "CC1(C)CCC(C)(C)c2cc(C(O)COc3ccc(CO)c(O)c3)ccc21", "note": "(configuration not stated)", "melting point": "110 to 115"}, {"smiles": "Cc1ccc(-c2csc3nc(C)c(CCCl)c(=O)n23)cc1", "melting point": "152 to 165"}, {"smiles": "CCCCCCCCCCCCCCC1CC(=O)N(NC(=O)CCc2cc(C(C)(C)C)c(O)c(C(C)(C)C)c2)C1=O", "note": "(configuration not stated)", "melting point": "70 to 77"}, {"smiles": "Nc1c(C(=O)O)cnn1-c1ccc(C(F)(F)F)cc1", "melting point": "169 to 171"}, {"smiles": "O=C(c1ccc(Cl)c([N+](=O)[O-])c1)c1nccs1", "melting point": "118 to 119"}, {"smiles": "Nc1ccc(S(=O)(=O)N2CCCC(c3ccc(Cl)c(C(F)(F)F)c3)=N2)cc1", "melting point": "205 to 206"}, {"smiles": "CCn1nc(C#N)c(=O)c2ccccc21", "melting point": "216 to 218"}, {"smiles": "CC(=O)Oc1ccc(C(=O)N2CCNC2=O)cc1OC(C)=O", "melting point": "154 to 156"}, {"smiles": "O=C(O)C(F)c1cc(F)cc(F)c1", "note": "(configuration not stated)", "melting point": "90 to 110"}, {"smiles": "CC(/C=C1/C(=O)N(c2ccccc2)C1c1ccccc1)=NOCCCN1CCCCC1", "note": "(configuration not stated)", "melting point": "120 to 122"}, {"smiles": "Cc1cc2ccccc2n1-c1ccnc2ccccc12", "melting point": "78 to 80"}, {"smiles": "CCCCOc1c(NCCCBr)c(=O)c1=O", "melting point": "56 to 57"}, {"smiles": "COc1cc2c(cc1-c1ccccc1)c1cc(-c3ccccc3)c(OC)cc1n2CCC(C)CCCC(C)C", "note": "(configuration not stated)", "melting point": 119}, {"smiles": "CCC1(CC)C=C(N2CCSC2=NC#N)c2cc(C#N)ccc2O1", "melting point": "251 to 252"}, {"smiles": "CCCCC(CC)n1c(CC)nc2c1C(=O)N(C)CN2c1ccc(Cl)cc1Cl", "note": "(configuration not stated)", "melting point": "94 to 95"}, {"smiles": "O=C(Cc1ccc(Cl)cc1)c1ccc(Cl)cc1Cl", "melting point": "65 to 66"}, {"smiles": "CC(CCCc1ccccc1)c1cc2c(cc1O)C1=C(CCCC1=O)C(C)(C)O2", "note": "(configuration not stated)", "melting point": "186 to 188"}, {"smiles": "NC(=S)NN1CCOCC1", "melting point": 168}, {"smiles": "CC(=O)Nc1cc2c(cc1[N+](=O)[O-])OC(C)O2", "note": "(configuration not stated)", "melting point": "112 to 113"}, {"smiles": "CC[C@H](C)[C@H](N)C(=O)NC(C)COc1ccc(C#N)cc1", "note": "(some centres not stated)", "melting point": "64 to 67"}, {"smiles": "O=C(Nc1cccc(-c2ccnc3c(C(=O)c4cccs4)cnn23)c1)c1c(F)cccc1F", "melting point": "159 to 160"}, {"smiles": "C[Si](C)(C)C#Cc1ccc(C2=CC(c3ccc(C#C[Si](C)(C)C)cc3)N(c3ccccc3)N2)cc1", "note": "(configuration not stated)", "melting point": "108 to 110"}, {"smiles": "O=c1c(N2CCN(c3ccncc3)CC2)cn(Cc2ccccc2)c2cc(O)ccc12", "melting point": "141 to 146"}, {"smiles": "Nc1cccc(NC(=O)NC2N=C(c3ccccc3F)c3ccccc3N(CC(=O)N3CC4CCC(CC4)C3)C2=O)c1", "note": "(racemic)", "melting point": "> 250"}, {"smiles": "CN(c1ccc(Cl)cc1)S(=O)(=O)c1cccc(C(=O)Nc2ccc(Cl)cc2C#N)c1", "melting point": "157 to 158"}, {"smiles": "COc1cc(S(C)=O)c(C)cc1OCC(=O)NCC(O)COc1ccccc1C", "note": "(configuration not stated)", "melting point": "106 to 108"}, {"smiles": "COc1cc(C)nc(NC(=O)NS(=O)(=O)c2csc3ccccc23)n1", "melting point": "180 to 181"}, {"smiles": "CC(=O)Nc1nc(CCc2ccc(CCN3CCN(C(=O)OC(C)(C)C)CC3)cc2)cs1", "melting point": "178 to 179"}, {"smiles": "CC(C)CCCOc1c(-c2ccc(S(C)(=O)=O)cc2)cnn(-c2ccc(F)cc2)c1=O", "melting point": "123 to 125"}, {"smiles": "FC(F)(F)c1ccc(OC2(c3ccccc3)CCNCC2)cc1", "melting point": "104 to 105"}, {"smiles": "Cc1cc(C)cc(OCC(O)CCCl)c1", "note": "(configuration not stated)", "melting point": "74 to 76"}, {"smiles": "C[C@H](CCC=O)[C@H]1CC[C@@]2(C)C3=C(CC[C@]12C)[C@@]1(C)CCC(=O)C(C)(C)C1CC3", "note": "(some centres not stated)", "melting point": "110 to 115"}, {"smiles": "O=C1C2=C(CCCC2)C(=O)N1c1cc([N+](=O)[O-])ccc1F", "melting point": "154 to 156"}, {"smiles": "CC(=O)NCCN1CCCc2ccc(C)cc21", "melting point": 99}, {"smiles": "CCOC(=O)Cc1ccc(-c2nc(COc3ccc(COc4nn(-c5ccccc5)cc4/C=C\\c4cnn(CC)c4)cc3OC)c(C)o2)cc1", "melting point": "140 to 141"}, {"smiles": "Cc1ccccc1Nc1nc2ccc(CC(=O)O)cc2o1", "melting point": "199 to 200"}, {"smiles": "Cc1cc2c(-c3cccc(C(F)(F)F)c3)nc(COCC(F)(F)F)nc2s1", "melting point": "40 to 41"}, {"smiles": "COC1(c2ccc(N(C)C)cc2)OC(=O)c2cc(N(C)C)ccc21", "note": "(configuration not stated)", "melting point": "140 to 147"}, {"smiles": "CC(C)(C)OC(=O)N1CCCC1C(=O)Nc1cccc(-c2cc(-c3ccccc3O)nc(NC(=O)c3cccs3)c2C#N)c1", "note": "(configuration not stated)", "melting point": "167 to 169"}, {"smiles": "COc1cc(OC)c2c(=O)[nH]c(-c3cccc(N4CCN(C(C)CO)CC4)n3)nc2c1", "note": "(configuration not stated)", "melting point": "202 to 204"}, {"smiles": "O=C(CN1CCCC1)c1ccc(F)cc1", "melting point": "49 to 50"}, {"smiles": "COc1cccc(S(=O)(=O)c2cccc(F)c2C#N)c1", "melting point": "113 to 117"}, {"smiles": "O=C(NNS(=O)(=O)c1ccccc1)c1cc2ccccc2o1", "melting point": "164 to 167"}, {"smiles": "COc1ccc(-c2c([N+](=O)[O-])cnc3ccc(Cl)cc23)c(OC)c1OC", "melting point": "114 to 116"}, {"smiles": "CCOC(=O)c1cc2ccccc2n1S(=O)(=O)c1ccc(C)cc1", "melting point": "92 to 95"}, {"smiles": "Cc1cccc(-c2[nH]c(C(C)C)nc2-c2ccc(F)c(-c3ccc(S(N)(=O)=O)cc3)c2)n1", "melting point": "245 to 246"}, {"smiles": "CN1CCC(=C2c3ccccc3COc3cc(Cl)ccc32)CC1", "melting point": "113 to 116"}, {"smiles": "Cc1nccc(C#N)c1OC1SCC(O)C(O)C1O", "note": "(configuration not stated)", "melting point": 161}, {"smiles": "CC(C)(O)CCCc1onc(-c2ccccc2)c1-c1ccc(S(N)(=O)=O)cc1", "melting point": "184 to 185"}, {"smiles": "CCC1(CC)CN(C(C)(C)C)C(=O)C(CC)(CC)N1OC(C)(C)C#N", "melting point": "45 to 52"}, {"smiles": "COc1cc(C(O)c2cnc3ccccc3c2)ccc1OCc1ccccc1", "note": "(configuration not stated)", "melting point": "124 to 125"}, {"smiles": "Cc1cccc(-c2[nH]c(C(C)C)nc2-c2cccc(-c3cccc(F)c3)c2)n1", "melting point": "140 to 142"}, {"smiles": "O=C(c1ccc(Nc2ccnc3cc(C(F)(F)F)ccc23)cc1)N1CCC(S(=O)c2ccc(F)cc2)CC1", "note": "(configuration not stated)", "melting point": "215 to 216"}, {"smiles": "CC(C)(C)OC(=O)CCNC(=O)c1cccc(NC(=O)c2csc(NC(=O)NCc3ccccc3)n2)c1", "melting point": 212}, {"smiles": "Cc1cc(-c2cccc(-c3ccc(OCC(=O)O)c4c3CCCC4)n2)c(C)[nH]1", "melting point": "199 to 206"}, {"smiles": "C=CCNc1c([N+](=O)[O-])cc(C(=O)OC)c(Nc2ccc(I)cc2F)c1F", "melting point": "153 to 154"}, {"smiles": "O=C(O)CCCCCSc1ccc(O)cc1", "melting point": "92 to 94"}, {"smiles": "COc1ccccc1CC(=O)N1C[C@@H]2[C@H](C1)[C@@](O)(c1ccccc1OC)[C@H](O)CC2(c1ccccc1)c1ccccc1", "note": "(racemic)", "melting point": 278}]}]}
